Converted amounts (≈) assume the structure as drawn. Where a SMILES comes first, the peptide text is derived from it. [ ]: non-standard residue; d: D form. Ac6c = NC1(C(=O)O)CCCCC1; Api = NC1(C(=O)O)CCNCC1; Aib = CC(C)(N)C(=O)O
Assays:
Assay type in all cases: functional
Escherichia coli = assay: In vitro antibacterial activity of the peptide was tested against Escherichia coli
Staphylococcus aureus = assay: In vitro antibacterial activity of the peptide was tested against Staphylococcus aureus
Mus musculus [1] = assay: In vivo antimicrobial activity of 500 microg peptide against Brucella abortus in chronically infected BALB/c mice
[2] = % helicity of the compound
Mus musculus [3] = assay: In vivo antimicrobial activity of 1 mg peptide against Brucella abortus in chronically infected BALB/c mice

Question: Which MIC (Escherichia coli) does the source give for CC(C)(NC(=O)C(C)(C)NC(=O)[C@H](CCCCN)NC(=O)[C@H](CCCCN)NC(=O)C(C)(C)NC(=O)C(C)(C)NC(=O)[C@H](CCCCN)NC(=O)C(C)(C)NC(=O)C(C)(C)NC(=O)[C@H](CCCCN)NC(=O)[C@@H](N)CCCCN)C(N)=O (H-KK[Aib][Aib]K[Aib][Aib]KK[Aib][Aib]-NH2) here?
Answer: 55 µM (≈ 64.3 µg/mL)

Question: And the MIC (Staphylococcus aureus)?
Answer: > 220 µM

Question: And the Reduction (Mus musculus [1])?
Answer: <63%

Question: Which MIC (Escherichia coli) does the source give for CC(C)(N)C(=O)NC(C)(C)C(=O)NC1(C(=O)N[C@@H](CCCCN)C(=O)NC(C)(C)C(=O)NC(C)(C)C(=O)NC2(C(=O)N[C@@H](CCCCN)C(=O)NC(C)(C)C(=O)NC(C)(C)C(N)=O)CCNCC2)CCNCC1 (H-[Aib][Aib][Api]K[Aib][Aib][Api]K[Aib][Aib]-NH2) here?
Answer: 7.7 µM (≈ 7.98 µg/mL)

Question: And the MIC (Staphylococcus aureus)?
Answer: 123 µM (≈ 127 µg/mL)

Question: And the Reduction (Mus musculus [1])?
Answer: 90%

Question: With NCCCC[C@H](NC(=O)[C@H](CCCCN)NC(=O)C1(NC(=O)C2(NC(=O)[C@H](CCCCN)NC(=O)C3(NC(=O)C4(NC(=O)[C@H](CCCCN)NC(=O)[C@@H](N)CCCCN)CCCCC4)CCCCC3)CCCCC2)CCCCC1)C(=O)NC1(C(N)=O)CCCCC1 (H-KK[Ac6c][Ac6c]K[Ac6c][Ac6c]KK[Ac6c]-NH2) as the compound, how does the MIC (Escherichia coli) read?
Answer: 5.7 µM (≈ 7.32 µg/mL)

Question: And the MIC (Staphylococcus aureus)?
Answer: 2.8 µM (≈ 3.59 µg/mL)

Question: Which Helicity [2] does the source give for CC(C)(N)C(=O)NC(C)(C)C(=O)N[C@@H](CCCCN)C(=O)N[C@H](CCCCN)C(=O)NC(C)(C)C(=O)NC(C)(C)C(=O)N[C@@H](CCCCN)C(=O)NC(C)(C)C(=O)NC(C)(C)C(=O)N[C@H](CCCCN)C(=O)N[C@@H](CCCCN)C(=O)NC(C)(C)C(=O)NC(C)(C)C(=O)N[C@H](CCCCN)C(=O)O here?
Answer: 42%

Question: With CC(C)(N)C(=O)NC(C)(C)C(=O)N[C@@H](CCCCN)C(=O)N[C@H](CCCCN)C(=O)NC(C)(C)C(=O)NC(C)(C)C(=O)N[C@@H](CCCCN)C(=O)NC(C)(C)C(=O)NC(C)(C)C(=O)N[C@H](CCCCN)C(=O)N[C@@H](CCCCN)C(=O)O as the compound, how does the Helicity [2] read?
Answer: 35%

Question: Which MIC (Escherichia coli) does the source give for CC(=O)N[C@@H](CCCCN)C(=O)N[C@@H](CCCCN)C(=O)NC(C)(C)C(=O)NC(C)(C)C(=O)N[C@@H](CCCCN)C(=O)NC(C)(C)C(=O)NC(C)(C)C(=O)N[C@@H](CCCCN)C(=O)N[C@@H](CCCCN)C(=O)NC(C)(C)C(=O)NC(C)(C)C(N)=O (Ac-KK[Aib][Aib]K[Aib][Aib]KK[Aib][Aib]-NH2) here?
Answer: 6.6 µM (≈ 7.99 µg/mL)

Question: And the MIC (Staphylococcus aureus)?
Answer: 212 µM (≈ 257 µg/mL)

Question: What about the Reduction (Mus musculus [1]) of the same compound?
Answer: 30%

Question: With H-KAAKKAAKAAKKAA-NH2 as the compound, how does the MIC (Escherichia coli) read?
Answer: > 178 µM

Question: And the MIC (Staphylococcus aureus)?
Answer: > 178 µM

Question: What about the Reduction (Mus musculus [3]) of the same compound?
Answer: 6%

Question: With CC(C)(N)C(=O)NC(C)(C)C(=O)N[C@H](CCCCN)C(=O)NC1(C(=O)NC(C)(C)C(=O)NC(C)(C)C(=O)N[C@H](CCCCN)C(=O)NC2(C(=O)NC(C)(C)C(=O)NC(C)(C)C(=O)O)CCNCC2)CCNCC1 as the compound, how does the Helicity [2] read?
Answer: 43%

Question: What does the source list for CC(C)(NC(=O)C(C)(C)NC(=O)[C@H](CCCCN)NC(=O)[C@H](CCCCN)NC(=O)C(C)(C)NC(=O)C(C)(C)NC(=O)[C@H](CCCCN)NC(=O)C(C)(C)NC(=O)C(C)(C)NC(=O)[C@H](CCCCN)NC(=O)[C@H](CCCCN)NC(=O)C(C)(C)NC(=O)C(C)(C)NC(=O)[C@@H](N)CCCCN)C(N)=O (H-K[Aib][Aib]KK[Aib][Aib]K[Aib][Aib]KK[Aib][Aib]-NH2)?
Answer: MIC (Escherichia coli): 5.5 µM (≈ 8.07 µg/mL); MIC (Staphylococcus aureus): 11 µM (≈ 16.1 µg/mL); Reduction (Mus musculus [1]): <73%

Question: Which results are given for NCCCC[C@H](NC(=O)[C@H](CCCCN)NC(=O)C1(NC(=O)C2(NC(=O)[C@H](CCCCN)NC(=O)C3(NC(=O)C4(NC(=O)[C@H](CCCCN)NC(=O)[C@H](CCCCN)NC(=O)C5(NC(=O)C6(NC(=O)[C@@H](N)CCCCN)CCCCC6)CCCCC5)CCCCC4)CCCCC3)CCCCC2)CCCCC1)C(=O)NC1(C(N)=O)CCCCC1 (H-K[Ac6c][Ac6c]KK[Ac6c][Ac6c]K[Ac6c][Ac6c]KK[Ac6c]-NH2)?
Answer: MIC (Escherichia coli): 4.5 µM (≈ 7.48 µg/mL); MIC (Staphylococcus aureus): 2.2 µM (≈ 3.66 µg/mL)

Question: Which results are given for NCCCC[C@H](NC(=O)[C@H](CCCCN)NC(=O)C1(NC(=O)C2(NC(=O)[C@H](CCCCN)NC(=O)C3(NC(=O)C4(NC(=O)[C@H](CCCCN)NC(=O)[C@@H](N)CCCCN)CCCCC4)CCCCC3)CCCCC2)CCCCC1)C(=O)NC1(C(=O)NC2(C(N)=O)CCCCC2)CCCCC1 (H-KK[Ac6c][Ac6c]K[Ac6c][Ac6c]KK[Ac6c][Ac6c]-NH2)?
Answer: MIC (Escherichia coli): 5.2 µM (≈ 7.33 µg/mL); MIC (Staphylococcus aureus): 2.6 µM (≈ 3.66 µg/mL)

Question: For NCCCC[C@H](NC(=O)[C@@H](CCCCN)NC(=O)C1(NC(=O)C2(NC(=O)[C@H](CCCCN)NC(=O)C3(NC(=O)C4(NC(=O)[C@@H](CCCCN)NC(=O)[C@H](CCCCN)NC(=O)C5(N)CCCCC5)CCCCC4)CCCCC3)CCCCC2)CCCCC1)C(=O)O, which Helicity [2] is on record?
Answer: 43%
